pIC50, pKi: −log10 of the molar value.

Series [1] is described as follows: DRUGMATRIX: Nicotinic Acetylcholine radioligand binding (ligand: [125I] Epibatidine). In kind it is cell membranes, Membrane. As to conditions: imr-32; Not Active = under 50% inhibition at 10 µM.
In a further series the target is T1, Substance-K receptor (Homo sapiens, UniProt P21452). Further: in other assays of this panel Not Active means under 50% inhibition at 10 µM.
T1 sequence (P21452 whole entry): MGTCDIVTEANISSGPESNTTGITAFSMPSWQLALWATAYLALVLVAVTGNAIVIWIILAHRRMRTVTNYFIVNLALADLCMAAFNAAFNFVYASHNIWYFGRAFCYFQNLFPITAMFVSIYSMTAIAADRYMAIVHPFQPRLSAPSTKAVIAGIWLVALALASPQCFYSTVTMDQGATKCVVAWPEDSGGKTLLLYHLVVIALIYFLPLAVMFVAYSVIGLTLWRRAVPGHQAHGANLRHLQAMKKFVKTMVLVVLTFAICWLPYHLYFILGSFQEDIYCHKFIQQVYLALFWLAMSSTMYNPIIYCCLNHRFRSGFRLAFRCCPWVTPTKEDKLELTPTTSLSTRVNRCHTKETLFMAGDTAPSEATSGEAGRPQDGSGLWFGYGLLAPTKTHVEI
It counts as cell membranes, CHO, Membrane. As to conditions: for IC50: cho.

The target in a further series is T2, Neutrophil elastase (Homo sapiens, UniProt P08246).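 Further: inhibition of neutrophil elastase enzyme activity, measured with a p-nitroanilide-linked peptide substrate; in other assays of this panel Not Active means under 50% inhibition at 10 µM.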
T2 sequence (P08246 whole entry): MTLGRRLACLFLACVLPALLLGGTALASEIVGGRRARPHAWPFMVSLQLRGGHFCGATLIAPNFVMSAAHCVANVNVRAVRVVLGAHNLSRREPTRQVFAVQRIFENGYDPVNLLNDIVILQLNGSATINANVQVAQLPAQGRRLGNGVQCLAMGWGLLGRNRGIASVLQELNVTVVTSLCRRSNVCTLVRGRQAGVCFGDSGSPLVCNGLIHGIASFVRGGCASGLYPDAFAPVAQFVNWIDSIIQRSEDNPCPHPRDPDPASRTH
It counts as tissue-based.

For another series, the target named is T3, Cytochrome P450 1A2 (Homo sapiens, UniProt P05177). Further: in other assays of this panel Not Active means under 50% inhibition at 10 µM.
T3 sequence (P05177 whole entry): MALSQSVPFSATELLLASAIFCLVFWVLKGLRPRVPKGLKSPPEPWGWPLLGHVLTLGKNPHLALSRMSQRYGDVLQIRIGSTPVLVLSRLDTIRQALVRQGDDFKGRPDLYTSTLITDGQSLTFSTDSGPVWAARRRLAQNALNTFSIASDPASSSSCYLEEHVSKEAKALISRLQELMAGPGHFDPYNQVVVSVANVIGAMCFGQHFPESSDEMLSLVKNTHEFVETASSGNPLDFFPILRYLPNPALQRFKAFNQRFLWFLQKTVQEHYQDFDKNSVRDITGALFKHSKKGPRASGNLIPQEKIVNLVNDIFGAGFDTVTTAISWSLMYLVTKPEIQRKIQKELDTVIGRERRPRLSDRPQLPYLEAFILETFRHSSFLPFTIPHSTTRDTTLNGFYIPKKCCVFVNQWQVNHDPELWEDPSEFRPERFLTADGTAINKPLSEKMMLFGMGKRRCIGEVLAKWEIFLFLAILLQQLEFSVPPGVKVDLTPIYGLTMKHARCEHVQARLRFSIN
The note with it: bti-tn-5b1-4.

The target in a further series is Glycine receptor (Rattus norvegicus, UniProt P22771+P24524+P07727+P20781). It counts as cell membranes, Wistar, Spinal cord, Membrane. Further: in other assays of this panel Not Active means under 50% inhibition at 10 µM.
Another series deals with T4, Endothelin-1 receptor (Homo sapiens, UniProt P25101).
T4 sequence (P25101 whole entry): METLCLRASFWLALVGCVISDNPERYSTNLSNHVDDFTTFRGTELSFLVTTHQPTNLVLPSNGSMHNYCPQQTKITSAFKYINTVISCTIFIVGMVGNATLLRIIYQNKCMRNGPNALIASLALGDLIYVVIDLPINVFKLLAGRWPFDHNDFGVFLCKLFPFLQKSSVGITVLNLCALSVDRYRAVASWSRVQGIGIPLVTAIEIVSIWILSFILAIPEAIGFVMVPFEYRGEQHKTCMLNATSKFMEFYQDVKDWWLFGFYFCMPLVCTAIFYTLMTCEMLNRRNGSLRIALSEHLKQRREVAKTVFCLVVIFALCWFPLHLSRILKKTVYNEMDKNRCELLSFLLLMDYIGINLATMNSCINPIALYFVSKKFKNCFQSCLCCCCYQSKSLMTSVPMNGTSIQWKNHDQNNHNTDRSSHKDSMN
It counts as cell membranes, CHO-K1, Membrane. The note with it: cho-k1.

Series [2] concerns the target T5, Amine oxidase [flavin-containing] A (Homo sapiens, UniProt P21397).
T5 sequence (P21397 whole entry): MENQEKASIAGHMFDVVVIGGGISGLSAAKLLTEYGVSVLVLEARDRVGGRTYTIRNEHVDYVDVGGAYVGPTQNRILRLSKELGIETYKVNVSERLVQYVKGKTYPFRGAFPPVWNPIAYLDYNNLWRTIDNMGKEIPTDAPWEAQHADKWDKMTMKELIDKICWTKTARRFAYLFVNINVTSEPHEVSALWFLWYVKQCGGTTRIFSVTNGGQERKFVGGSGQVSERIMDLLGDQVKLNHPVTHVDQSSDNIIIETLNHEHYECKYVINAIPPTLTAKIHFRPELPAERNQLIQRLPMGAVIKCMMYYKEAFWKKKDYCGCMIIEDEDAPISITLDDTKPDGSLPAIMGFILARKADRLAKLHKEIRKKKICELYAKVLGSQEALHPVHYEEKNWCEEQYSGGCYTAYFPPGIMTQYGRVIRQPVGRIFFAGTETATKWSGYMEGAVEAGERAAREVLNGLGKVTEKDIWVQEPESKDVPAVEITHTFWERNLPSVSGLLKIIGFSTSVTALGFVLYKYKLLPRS
Kind of series: DRUGMATRIX: Monoamine Oxidase MAO-A enzyme inhibition (substrate: Kynuramine). Further details: species or system BTI-TN-5B1-4. The note with it: bti-tn-5b1-4; Not Active = under 50% inhibition at 10 µM.

Another series deals with Cytochrome P450 3A4 (Homo sapiens, UniProt P08684). The note with it: bti-tn-5b1-4.
Chain of Cytochrome P450 3A4 (P08684 whole entry): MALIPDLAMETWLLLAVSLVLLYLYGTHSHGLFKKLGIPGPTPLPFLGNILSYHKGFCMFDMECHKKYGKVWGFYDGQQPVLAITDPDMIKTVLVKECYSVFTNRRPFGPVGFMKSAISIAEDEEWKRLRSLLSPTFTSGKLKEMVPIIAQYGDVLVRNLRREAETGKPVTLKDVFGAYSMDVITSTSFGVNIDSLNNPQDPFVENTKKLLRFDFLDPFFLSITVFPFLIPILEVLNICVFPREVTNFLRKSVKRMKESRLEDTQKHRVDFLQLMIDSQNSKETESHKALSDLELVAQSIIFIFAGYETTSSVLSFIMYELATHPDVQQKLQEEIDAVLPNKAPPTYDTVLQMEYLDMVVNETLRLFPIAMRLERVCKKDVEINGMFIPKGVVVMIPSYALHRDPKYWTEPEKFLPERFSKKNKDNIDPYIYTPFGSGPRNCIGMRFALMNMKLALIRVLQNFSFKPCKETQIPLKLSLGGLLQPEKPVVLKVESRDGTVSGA

With `COc1cc(N)nc2[nH]c(-c3ccc(F)cc3)c(-c3ccncc3)c12`, the IC50 result (in series [1]; on Substance-K receptor; against Neutrophil elastase; at Cytochrome P450 1A2; on Glycine receptor; against Endothelin-1 receptor) was “Not Active” each time. Further, the IC50 result in series [2] is reported as “Not Active”. Besides, the Ki result (in series [1]; at Cytochrome P450 1A2) was “Not Active” each time.
Take `CC(=O)Nc1nnc(S(N)(=O)=O)s1` [ACETAZOLAMIDE]: the IC50 result against Substance-K receptor, on Neutrophil elastase, against Cytochrome P450 3A4, on Cytochrome P450 1A2, against Glycine receptor and at Endothelin-1 receptor was “Not Active” throughout. Moreover, in series [2], the IC50 entry is “Not Active”. The Ki result on Cytochrome P450 3A4 and on Cytochrome P450 1A2 was “Not Active” in each case.
As for `O=c1[nH]c2ccccc2n1CCCN1CCC(n2c(=O)[nH]c3cc(Cl)ccc32)CC1` [DOMPERIDONE], the IC50 entry (against Substance-K receptor; on Neutrophil elastase; against Glycine receptor; at Endothelin-1 receptor; in series [2]) was “Not Active” in each case.
On to `CC(C)OC(=O)C(C)(C)Oc1ccc(C(=O)c2ccc(Cl)cc2)cc1` [FENOFIBRATE], for which the IC50 result at Substance-K receptor, at Neutrophil elastase, against Cytochrome P450 3A4, on Cytochrome P450 1A2, against Glycine receptor and on Endothelin-1 receptor was “Not Active” throughout. The IC50 result in series [2] is on record as “Not Active”. Moreover, the Ki entry on Cytochrome P450 3A4 and on Cytochrome P450 1A2 was “Not Active” each time.
In the case of `OCCN1CCN(CCCN2c3ccccc3Sc3ccc(C(F)(F)F)cc32)CC1` [FLUPHENAZINE], the negative logarithm of the IC50 (pIC50) on Substance-K receptor (read-out: IC50) was 4.65. For the same compound, the pKi at Substance-K receptor (read-out: Ki) is 5.13. For the same compound, the IC50 result (against Neutrophil elastase; against Glycine receptor; at Endothelin-1 receptor; in series [2]) was “Not Active” throughout.
Regarding `CN1C2CCCC1CC(NC(=O)c1nn(C)c3ccccc13)C2` (stereo not given) [GRANISETRON], the IC50 entry on Substance-K receptor, against Neutrophil elastase, against Cytochrome P450 3A4, at Cytochrome P450 1A2, against Glycine receptor and against Endothelin-1 receptor was “Not Active” throughout. The IC50 entry in series [2] is on record as “Not Active”. Moreover, the Ki result at Cytochrome P450 3A4 and at Cytochrome P450 1A2 was “Not Active” each time.
As to `CC[C@@H](CO)NC(=O)[C@@H]1C=C2c3cccc4c3c(cn4C)C[C@H]2N(C)C1` [METHYSERGIDE], the IC50 entry on Substance-K receptor, on Neutrophil elastase, against Cytochrome P450 3A4, on Cytochrome P450 1A2, against Glycine receptor and on Endothelin-1 receptor was “Not Active” throughout. Further, the IC50 result in series [2] is “Not Active”. Further, the Ki entry on Cytochrome P450 3A4 and at Cytochrome P450 1A2 was “Not Active” throughout.
As for `CN(CCOc1ccc(CC2SC(=O)NC2=O)cc1)c1ccccn1` (stereo not given) [ROSIGLITAZONE], the IC50 entry (in series [1]; at Substance-K receptor; at Neutrophil elastase; against Cytochrome P450 1A2; on Glycine receptor; against Endothelin-1 receptor) was “Not Active” each time. Moreover, in series [2], the IC50 result was “Not Active”. Also, the Ki result (in series [1]; on Cytochrome P450 1A2) was “Not Active” each time.
As for `C#CCN(C)[C@H](C)Cc1ccccc1` [SELEGILINE], the IC50 entry (in series [1]; against Substance-K receptor; at Neutrophil elastase; on Cytochrome P450 3A4; at Cytochrome P450 1A2; at Glycine receptor) was “Not Active” throughout. Moreover, at Endothelin-1 receptor, the IC50 entry is reported as “Not Active”. Further, the Ki result (in series [1]; on Cytochrome P450 3A4; at Cytochrome P450 1A2) was “Not Active” throughout.
For `CO[C@H]1C[C@@H]2CC[C@@H](C)[C@@](O)(O2)C(=O)C(=O)N2CCCC[C@H]2C(=O)O[C@H]([C@H](C)C[C@@H]2CC[C@@H](O)[C@H](OC)C2)CC(=O)[C@H](C)/C=C(\C)[C@@H](O)[C@@H](OC)C(=O)[C@H](C)C[C@H](C)/C=C/C=C/C=C/1C` [SIROLIMUS], the IC50 entry (in series [1]; at Substance-K receptor; against Neutrophil elastase; against Cytochrome P450 1A2; at Glycine receptor; against Endothelin-1 receptor) was “Not Active” throughout. The IC50 result in series [2] is “Not Active”. The Ki entry (in series [1]; at Cytochrome P450 1A2) was “Not Active” each time.
Regarding `CN[C@@H]1[C@H](O)[C@H](NC)[C@H]2O[C@@]3(O)C(=O)C[C@@H](C)O[C@H]3O[C@@H]2[C@H]1O` [SPECTINOMYCIN], the IC50 result (in series [1]; against Substance-K receptor; at Neutrophil elastase; at Cytochrome P450 3A4; at Glycine receptor; against Endothelin-1 receptor) was “Not Active” each time. In series [2], the IC50 result is reported as “Not Active”. Moreover, the Ki result (in series [1]; on Cytochrome P450 3A4) was “Not Active” each time.
In the case of `CC(C)(C)NC[C@H](O)COc1nsnc1N1CCOCC1` [TIMOLOL], the IC50 entry (in series [1]; against Substance-K receptor; on Neutrophil elastase; against Cytochrome P450 1A2; at Glycine receptor; against Endothelin-1 receptor) was “Not Active” in each case. Further, in series [2], the IC50 result is recorded as “Not Active”. Besides, the Ki entry (in series [1]; at Cytochrome P450 1A2) was “Not Active” each time.
Turning to `CCS(=O)(=O)CCn1c([N+](=O)[O-])cnc1C` [TINIDAZOLE], the IC50 entry (in series [1]; at Substance-K receptor; against Neutrophil elastase; against Glycine receptor; against Endothelin-1 receptor; in series [2]) was “Not Active” each time. Also, the Ki result in series [1] is reported as “Not Active”.
For `NC[C@H]1O[C@H](O[C@H]2[C@H](O)[C@@H](O[C@H]3O[C@H](CO)[C@@H](O)[C@H](N)[C@H]3O)[C@H](N)C[C@@H]2N)[C@H](N)C[C@@H]1O` [TOBRAMYCIN], the IC50 result (in series [1]; at Substance-K receptor; on Neutrophil elastase; on Cytochrome P450 3A4; against Glycine receptor; against Endothelin-1 receptor) was “Not Active” each time. In series [2], the IC50 result was “Not Active”. The Ki result (in series [1]; at Cytochrome P450 3A4) was “Not Active” throughout.
With `COc1ccc(CN2CCNCC2)c(OC)c1OC` [TRIMETAZIDINE], the IC50 entry (in series [1]; at Substance-K receptor; at Neutrophil elastase; against Glycine receptor; against Endothelin-1 receptor; in series [2]) was “Not Active” each time. Further, the Ki entry in series [1] is listed as “Not Active”.
